Read-outs that look alike come from different tables or passages of the source.
Columns and labels:
[1] = target: T1, NHE3 (Homo sapiens, UniProt P48764); test: Cell-based assay of NHE-3 activity (pre-incubation inhibition), human; details: human Preincubation
T1 construct: expressed in transfected cells
T1 sequence (P48764 26-834): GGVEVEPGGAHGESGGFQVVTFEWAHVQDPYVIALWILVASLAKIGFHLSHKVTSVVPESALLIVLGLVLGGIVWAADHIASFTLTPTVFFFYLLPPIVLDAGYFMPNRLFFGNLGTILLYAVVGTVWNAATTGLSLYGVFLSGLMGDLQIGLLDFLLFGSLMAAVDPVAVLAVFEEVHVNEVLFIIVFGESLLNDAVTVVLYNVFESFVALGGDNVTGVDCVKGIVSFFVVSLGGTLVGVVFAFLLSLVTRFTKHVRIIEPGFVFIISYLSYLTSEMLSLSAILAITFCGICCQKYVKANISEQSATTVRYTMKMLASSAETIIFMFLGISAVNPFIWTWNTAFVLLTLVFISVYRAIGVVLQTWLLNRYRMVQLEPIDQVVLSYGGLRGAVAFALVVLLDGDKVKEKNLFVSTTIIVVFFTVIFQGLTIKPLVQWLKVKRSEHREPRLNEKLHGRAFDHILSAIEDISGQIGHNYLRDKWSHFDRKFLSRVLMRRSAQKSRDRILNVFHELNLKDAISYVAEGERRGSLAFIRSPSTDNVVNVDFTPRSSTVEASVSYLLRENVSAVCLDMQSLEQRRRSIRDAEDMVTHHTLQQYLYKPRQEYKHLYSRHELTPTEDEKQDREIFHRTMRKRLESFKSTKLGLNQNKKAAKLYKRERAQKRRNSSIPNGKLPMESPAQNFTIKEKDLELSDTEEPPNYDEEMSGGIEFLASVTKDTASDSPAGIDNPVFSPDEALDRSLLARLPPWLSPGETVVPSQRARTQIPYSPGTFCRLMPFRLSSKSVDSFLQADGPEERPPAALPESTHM
T1 sequence (Q99653 2-195 partner limits assumed): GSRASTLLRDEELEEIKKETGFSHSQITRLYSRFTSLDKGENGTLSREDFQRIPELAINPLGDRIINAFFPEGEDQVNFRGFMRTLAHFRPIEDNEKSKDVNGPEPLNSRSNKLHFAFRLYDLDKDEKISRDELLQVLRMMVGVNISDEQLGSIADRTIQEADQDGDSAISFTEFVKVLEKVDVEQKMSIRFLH
Summary of the method: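 PS120 fibroblasts stably expressing human NHE3 and NHERF2, loaded 30 min at 37 °C with 5 μM BCECF-AM in NH4Cl buffer, then acidified 10 min at room temperature in Na+-free buffer with 0–30 μM compound. Initial rate of BCECF fluorescence ratio change (FLIPR) per minute taken as Na+/H+ activity.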

[2] = tested on: absorption of sodium from the intestinal lumen; test: Inhibition of intestinal sodium absorption in mice; type: in vivo; details: CD-1 mice, 15 mg/kg oral gavage twice daily; for response vs control in vivo at 15 mg/kg: Mus musculus, 72 h, day 3, normalized to dietary sodium intake
Method: Urinary and fecal sodium excretions were measured to assess the ability of selected example compounds to inhibit the absorption of sodium from the intestinal lumen. In addition, an assessment of the absence or presence of diarrhea in response to compound treatment was made. Approximately eight-week old, male, CD-1 mice were purchased from Envigo (Livermore, Calif.), were housed 6 per cage and acclimated for at least 48 hours before study initiation. Animals were fed Harlan Teklad Global TD.160470 rodent chow (Madison, Wis.), standard laboratory rodent chow Harlan Teklad Global 2018 with the addition of 0.4% inorganic phosphorous. […] To initiate the study, mice were weighed and then individually placed in metabolic cages. Following a 3-day acclimation period to the metabolic cage, a 24-hr baseline collection of urine and feces was performed. […] Each day, measurements of body weight. 24-hour food intake, water intake, urine volume and wet fecal weight were recorded, along with any observation of diarrhea. Fecal samples were dried using a lyophilizer for at least 3 days, following which dry weight was recorded and fecal fluid content was calculated based on the difference between the wet and dry stool weights. Fecal fluid content on day 3 of compound treatment was calculated as a change from the vehicle group mean. For urine samples, the volumes were determined gravimetrically. Feces and urine were analyzed for sodium content by microwave plasma-atomic emission spectroscopy or ion chromatography, respectively. Urine samples were analyzed on an ion chromatography system (Thermo Fisher ICS-3000 or ICS-5000+) coupled with conductivity detectors. Chromatographic separation of cations was performed using an IonPac CS12A (Thermo Fisher) 2×250 mm analytical column with an isocratic elution using […] methanesulfonic acid. Concentrations were interpolated from a a standard curve (prepared in 10 mM HCl) for sodium ion based on retention time and peak area. Fecal sample analysis by Microwave Plasma Atomic Emission Spectrometry (MP-AES). Dry fecal samples were ground into a fine powder on a homogenizer and the ground samples (400-600 mg aliquots weighed) were digested with nitric acid by microwave method (Mars 6). These digested samples were diluted with 1% Nitric acid and analyzed on Agilent 4100 MP-AES. Concentrations were calculated relative to a standard curve (prepared in 1% Nitric acid) for sodium based on the signal intensity. Sodium was detected at a wavelength of 588.995 nm. Twenty-four-hour urinary sodium excretion (ma/24-hours) was calculated by multiplying urinary sodium concentration by 24-hour urine volume. Twenty-four-hour fecal sodium excretion (mg/24-hours) was calculated by multiplying fecal sodium concentration by 24-hour dry fecal weight. The urinary and fecal sodium excretion on day 3 of compound treatment were normalized to dietary sodium intake and expressed as a percentage of the vehicle mean.

[3] = target: T1, NHE3; test: Cell-based assay of NHE-3 activity (persistent inhibition), human; details: human Persistence, 60 min incubation then washout
Summary of the method: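 PS120 fibroblasts expressing human NHE3 with NHERF2 exposed to 0-30 μM compound for 60 min at RT, then washed out; cells acid-loaded by NH4Cl prepulse with BCECF-AM and Na+-free buffer. Na+-driven pH recovery started 10 min post-washout; initial rate of BCECF ratio change (FLIPR) taken as activity.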

[4] = target: T1, NHE3; test: persistent inhibition of NHE3 in the cell-based assay of example 181 (4-chloro vs 4-cyano pairs); details: for IC50: cell-based assay of example 181, after washout, read-out: pIC50 (persistent) (converted); for Percent Inhibition: cell-based assay of example 181, persistent
Method: The following pairs of compounds differ only in the 4-position substituent (either chloro (X—Cl) or cyano (X—CN)):
The ability of compounds to inhibit human and rat NHE-3-mediated Na^+ dependent H^+ antiport after application and washout was measured using a modification of the pH sensitive dye method described above. PS120 fibroblasts stably expressing human NHE3 and NHERF2 were obtained from Mark Donowitz (Baltimore, Md.). Opossum kidney (OK) cells were obtained from the ATCC and propagated per their instructions. The rat NHE-3 gene was introduced into OK cells via electroporation, and cells were seeded into 96 well plates and grown overnight. Medium was aspirated from the wells, cells were washed once with NaCl-HEPES buffer (100 mM NaCl, 50 mM HEPES, 10 mM glucose, 5 mM KCl, 2 mM CaCl2, 1 mM MgCl2, pH 7.4), then overlayed with NaCl-HEPES buffer containing 0-30 μM test compound. After a 60 min incubation at room temperature, the test drug containing buffer was aspirated from the cells. Following aspiration, cells were washed once with NaCl-HEPES buffer without drug, then incubated for 30 min at 37° C. with NH4Cl-HEPES buffer (20 mM NH4Cl, 80 mM NaCl, 50 mM HEPES, 5 mM KCl, 2 mM CaCl2, 1 mM MgCl2, pH 7.4) containing 5 μM BCECF-AM. Cells were washed once with Ammonium free, Na^+-free HEPES (100 mM choline, 50 mM HEPES, 10 mM glucose, 5 mM KCl, 2 mM CaCl2, 1 mM MgCl2, pH 7.4) and incubated in the same buffer for 10 minutes at room temperature to lower intracellular pH. NHE-3-mediated recovery of neutral intracellular pH was initiated (10 min after compound washout) by addition of Na-HEPES buffer. […] Changes in intracellular pH were monitored using a FLIPR Tetra® (Molecular Devices, Sunnyvale, Calif.) by excitation at λex 439 to 505 nm, and measuring BCECF fluorescence at λem 538 nm. The initial rate of the fluorescence ratio change was used as a measure of NHE-mediated Na^+/H^+ activity, and reported as the change in fluorescence ratio per minute.

Structure (SMILES) | % inhibition [1] | % inhibition [3] | IC50 [4] [nM] | Percent Inhibition [4] [%] | further results
C[C@@H]1CN([C@H]2Cc3c(C#N)cc(Cl)cc3[C@@H]2Oc2ccc(S(=O)(=O)N[C@H]3CCN(C(=O)CNC(=O)CNC(=O)NCCCCNC(=O)NCC(=O)NCC(=O)N4CC[C@H](NS(=O)(=O)c5ccc(O[C@H]6c7cc(Cl)cc(C#N)c7C[C@@H]6N6CCN[C@H](C)C6)cc5)C4)C3)cc2)CCN1 [B-CN, N-{2-[(3S)-3-(4-{[(1S,2S)-6-chloro-4-cyano-2-[(3R)-3-methylpiperazin-1-yl]-2,3-dihydro-1H-inden-1-yl]oxy}benzenesulfonamido)pyrrolidin-1-yl]-2-oxoethyl}-2-({[4-({[({2-[(3S)-3-(4-{[(1S,2S)-6-chloro-4-cyano-2-[(3R)-3-methylpiperazin-1-yl]-2,3-dihydro-1H-inden-1-yl]oxy}benzenesulfonamido)pyrrolidin-1-yl]-2-oxoethyl}carbamoyl)methyl]carbamoyl}amino)butyl]carbamoyl}amino)acetamide] |  |  | 0.126 | 110 | 
N#Cc1cc(Cl)cc2c1C[C@H](N1CCNCC1)[C@H]2Oc1ccc(S(=O)(=O)NCCOCCOCCNC(=O)NCCCCNC(=O)NCCOCCOCCNS(=O)(=O)c2ccc(O[C@H]3c4cc(Cl)cc(C#N)c4C[C@@H]3N3CCNCC3)c(F)c2)cc1F [D-CN, 3-(2-{2-[2-(4-{[(1S,2S)-6-chloro-4-cyano-2-(piperazin-1-yl)-2,3-dihydro-1H-inden-1-yl]oxy}-3-fluorobenzenesulfonamido)ethoxy]ethoxy}ethyl)-1-(4-{[(2-{2-[2-(4-{[(1S,2S)-6-chloro-4-cyano-2-(piperazin-1-yl)-2,3-dihydro-1H-inden-1-yl]oxy}-3-fluorobenzenesulfonamido)ethoxy]ethoxy}ethyl)carbamoyl]amino}butyl)urea] |  |  | 0.501 | 74 | 

Second part, led by results:

% inhibition [1] | % inhibition [3] | IC50 [4] [nM] | Percent Inhibition [4] [%] | Structure (SMILES) | further results
C (>70%) | C (>70%) |  |  | CN(C)[C@@H]1CCCN([C@H]2Cc3c(Cl)cc(Cl)cc3[C@@H]2Oc2ccc(S(=O)(=O)NCCOCCOCCNC(=O)NCCCCNC(=O)NCCOCCOCCNS(=O)(=O)c3ccc(O[C@H]4c5cc(Cl)cc(Cl)c5C[C@@H]4N4CCC[C@@H](N(C)C)C4)c(F)c3)cc2F)C1 [Example 27, 3-[2-(2-[2-[(4-[[(1S,2S)-4,6-Dichloro-2-[(3R)-3-(dimethylamino)piperidin-1-yl]-2,3-dihydro-1H-inden-1-yl]oxy]-3-fluorobenzene)sulfonamido]ethoxy]ethoxy)ethyl]-1-[4-([[2-(2-[2-[(4-[[(1S,2S)-4,6-dichloro-2-[(3R)-3-(dimethylamino)piperidin-1-yl]-2,3-dihydro-1H-inden-1-yl]oxy]-3-fluorobenzene)sulfonamido]ethoxy]ethoxy)ethyl]carbamoyl]amino)butyl]urea; bis(trifluoroacetic acid)] | Fecal fluid content (Δ from vehicle) ([2]; day 3, change from vehicle group mean): C (>10); response vs control in vivo at 15 mg/kg ([2]; read-out: Fecal Na Excretion (% of vehicle)): > 200%; response vs control in vivo at 15 mg/kg ([2]; read-out: Urinary Na Excretion (% of vehicle)): 50 to 70%
C (>70%) | C (>70%) |  |  | Cc1cc(S(=O)(=O)N2CC[C@H](COCCOCCNC(=O)NCCCCNC(=O)NCCOCCOC[C@H]3CCN(S(=O)(=O)c4ccc(O[C@H]5c6cc(Cl)cc(Cl)c6C[C@@H]5N(C)C)c(C)c4)C3)C2)ccc1O[C@H]1c2cc(Cl)cc(Cl)c2C[C@@H]1N(C)C [Example 44, 3-[2-(2-[[(3S)-1-[(4-[[(1S,2S)-4,6-dichloro-2-(dimethylamino)-2,3-dihydro-1H-inden-1-yl]oxy]-3-methylbenzene)sulfonyl]pyrrolidin-3-yl]methoxy]ethoxy)ethyl]-1-[4-([[2-(2-[[(3S)-1-[(4-[[(1S,2S)-4,6-dichloro-2-(dimethylamino)-2,3-dihydro-1H-inden-1-yl]oxy]-3-methylbenzene)sulfonyl]pyrrolidin-3-yl]methoxy]ethoxy)ethyl]carbamoyl]amino)butyl]urea; bis(trifluoroacetic acid)] | pIC50 ([1]; 0-30 μM test compound): C (NHE3 pIC50 > 7); pIC50 [3]: B (NHE3 pIC50 6-7)
A (NHE3 < 40%) | A (NHE3 < 40%) |  |  | CN(C)[C@H]1Cc2c(cc(Cl)cc2C(F)(F)F)[C@@H]1Oc1ccc(S(=O)(=O)NCCOCCOCCNC(=O)NCCCCNC(=O)NCCOCCOCCNS(=O)(=O)c2ccc(O[C@H]3c4cc(Cl)cc(C(F)(F)F)c4C[C@@H]3N(C)C)cc2)cc1 [Example 13, 3-[2-(2-[2-[(4-[[(1S,2S)-6-Chloro-2-(dimethylamino)-4-(trifluoromethyl)-2,3-dihydro-1H-inden-1-yl]oxy]benzene)sulfonamido]ethoxy]ethoxy)ethyl]-1-[4-([[2-(2-[2-[(4-[[(1S,2S)-6-chloro-2-(dimethylamino)-4-(trifluoromethyl)-2,3-dihydro-1H-inden-1-yl]oxy]benzene)sulfonamido]ethoxy]ethoxy)ethyl]carbamoyl]amino)butyl]urea] | 
